Assays:
caspase 3/7 = assay: Caspase 3/7 activity assay (APO-ONE) after staurosporine treatment; assay type: cell-based, Chinese Hamster; settings: staurosporine 2 μM, 16 h
Method: About 3×10^5 cells of each clone were seeded in one ml of growth medium in a 24-well plate. On day 4 (d4) post seeding, about 1×10^5 cells were transferred in triplicate to a 96 well plate. Staurosprine (2 μM fc) was added and the cells were incubated for 16 h before assaying for caspase3/7 activity by APO-ONE kit (BD Labs). The procedure was repeated on d10, except that Staurosporine was omitted. […] The apoptotic^R nature of the selected clones was confirmed by flow cytometry analysis (see below) and in some instances, by measuring the mitochondrial membrane potential.
Each apoptotic^R cell line was examined for caspase 3/7 activity by APO-ONE as this activity provides an indication of the degree of resistance of a cell line to apoptosis. Briefly, in this assay, the profluorescent substrate Z-DEVD-R110 is cleaved by caspase 3/7 in a dose-dependent manner. Exponential cultures of EA167 and EAX197 as well as the control cell line were treated with staurosporine for 16 hours to induce apoptosis, following which caspase 3/7 was measured. The caspase 3/7 activity in staurosporine treated control cells was arbitrarily set at 100%. […] As further evidence of the apoptotic^R nature of EA167 and EAX197, staurosporine-treated cultures of these two cell lines and the control cell line, were labeled with FITC-conjugated anti-caspase 3 antibody followed by analysis by flow cytometry. […]

caspase 3 = assay: Flow cytometry with FITC-labeled anti-caspase 3 antibody after staurosporine treatment; assay type: cell-based, Chinese Hamster; settings: staurosporine 2 μM, 16 h
Method: About 1×10^6 cells from exponential cultures were withdrawn from each shake flask into 24 well plates, incubated with Staurosporine (2 μM fc) for 16 h, harvested and washed once in PBS. The cells were then incubated with CytoPerm (Cat. No. 2075KK, BD BioScience) to fix and permeablized them. Following a PBS wash, cells were incubated with FITC-labeled anti-caspase3 (Cat. No. 68654, BD BioScience) antibody before subjecting them to analysis by flow cytometry.
Each apoptotic^R cell line was examined for caspase 3/7 activity by APO-ONE as this activity provides an indication of the degree of resistance of a cell line to apoptosis. Briefly, in this assay, the profluorescent substrate Z-DEVD-R110 is cleaved by caspase 3/7 in a dose-dependent manner. Exponential cultures of EA167 and EAX197 as well as the control cell line were treated with staurosporine for 16 hours to induce apoptosis, following which caspase 3/7 was measured. The caspase 3/7 activity in staurosporine treated control cells was arbitrarily set at 100%. […] As further evidence of the apoptotic^R nature of EA167 and EAX197, staurosporine-treated cultures of these two cell lines and the control cell line, were labeled with FITC-conjugated anti-caspase 3 antibody followed by analysis by flow cytometry. […] However, 91% of the control cell population was positive for caspase 3 following staurosporine treatment. In contrast, only 9% of the population derived from cell line EAX197 and 30% of that derived from cell line EA167 were positive for caspase 3, confirming the apoptotic^R phenotype of these two cell lines.

CN[C@@H]1C[C@H]2O[C@@](C)([C@@H]1OC)n1c3ccccc3c3c4c(c5c6ccccc6n2c5c31)C(=O)NC4 [staurosporine]
caspase 3/7 activity, of staurosporine treated control cells (set at 100%) (caspase 3/7; EA167 cells (CHOK1SV expressing E1B-19K + Aven)): 30%
caspase 3/7 activity, of staurosporine treated control cells (set at 100%) (caspase 3/7; EAX197 cells (CHOK1SV expressing E1B-19K + Aven + XIAPΔ)): 35%
cell population positive for caspase 3 (caspase 3; EA167 cells): 30%
cell population positive for caspase 3 (caspase 3; EAX197 cells): 9%
cell population positive for caspase 3 (caspase 3; control cell line (CHOK1SV, C1013A)): 91%
